Assay [1] deals with glucose dehydrogenase (GDH). The assay is described as follows: Inhibition of GDH-driven NADH production read out on the paper-based AuNP device. The class given is biochemical, Pseudomonas sp. The protocol:
To test the inhibitory effects of Hg(II), different concentrations of Hg(II) was incubated with 0.1 U GDH for 10 min in the presence of 10 mM of glucose and 0.1 M of phosphate buffer solution (pH 7.4) at 25 ° C., then 6 mM of NAD' was added to initiate the enzymatic reaction for […]. The kinetics of the reaction was monitored for the first 6 minutes in a microplate reader to calculate the enzyme's activity. 10 μL of the enzymatic reaction solution were added to 90 μL of 400 μM Au^3+-CTAB solution, and 25 μL of this solution was applied to the device test zone.
The colorimetric results were visualized after 4 minutes and evaluated for the inhibitory effects of these metals by measuring the decrease in the color intensity produced by the enzyme-substrate reaction. Ag(I) and Pb(II) were also tested as potential inhibitors in a similar fashion. Intensity analysis was performed using the ImageJ software.
Clearly, the GDH inhibition and AuNPs dissolution was increased with increasing Hg(II) concentration, with complete dissolution of AuNPs in the testing zone at a Hg(II) ion concentration of 100 μM (FIG. 6B, Hg(II)).
(§1) The resulting solution was then added into a 400 μM of Au^3+-CTAB solution, and 25 μL of this mixture were immediately applied to the testing zone. In the absence of Hg(II), GDH fully converted NAD^+ into NADH after 4 minutes, completely inhibiting AuNP dissolution and leaving the testing zone dark red (FIG. 17A). […] GDH-mediated production of NADH decreased in parallel with the increase of Hg(II) concentration, yielding a lighter readout as increased dissolution of AuNPs occurred (FIG. 17A). […] The color intensity was measured with the ImageJ software and the normalized intensity with different concentrations of Hg(II) was plotted (FIG. 17B). The kinetics of GDH in homogeneous solution was also monitored with or without Hg(II) ions (FIG. 18). Enzyme activity was calculated based on the kinetics of the enzymatic reaction and defined as 100% in the absence of Hg(II).

In the next assay the test system is GDH. The note with it: reference 43; cited from earlier work.
For assay [2], the target named is glucose dehydrogenase (GDH). The assay is described as follows: GDH activity in homogeneous solution, absorbance change at 340 nm. The note with it: Hg(II) 0-200 μM, activity 100% without Hg(II), read-out: IC50 for inhibition of GDH in homogeneous solution. The class given is biochemical, Pseudomonas sp. Here is the method: The absorbance change at 340 nm was monitored to calculate enzyme activity. Hg(II) concentrations being tested ranged from 0-200 μM. The enzyme's activity was defined as 100% in the absence of the Hg(II) ion, and as the Hg(II) concentration increased the enzyme's activity decreased.
To test the inhibitory effects of Hg(II), different concentrations of Hg(II) was incubated with 0.1 U GDH for 10 min in the presence of 10 mM of glucose and 0.1 M of phosphate buffer solution (pH 7.4) at 25 ° C., then 6 mM of NAD' was added to initiate the enzymatic reaction for […]. The kinetics of the reaction was monitored for the first 6 minutes in a microplate reader to calculate the enzyme's activity. […]
as §1, with “zone.” for “zone. In the absence of Hg(II), GDH fully converted NAD^+ into NADH after 4 minutes, completely inhibiting AuNP dissolution and leaving the testing zone dark red (FIG. 17A).”

In general, IC50 refers to the concentration that gives 50% inhibition.

`O=[N+]([O-])[O-].[Ag+]` [Ag(I), silver nitrate]: in assay [1] (20 μM or higher of the ion, completely white readout), the “activity of GDH” value is given as “completely inhibited”. Further, the “inhibitory effect on GDH (literature)” value in the assay with GDH is “strong inhibitors”.

Take lead(II) acetate trihydrate [Pb(II)]: in assay [1] (20 to 100 μM of the ion, no dissolution of AuNPs observed), the “inhibitory effect on GDH” value was “no inhibitory effect”. Further, in the assay with GDH, the “inhibitory effect on GDH (literature)” value is recorded as “no inhibitory effect”.

Turning to `CC(=O)[O-].CC(=O)[O-].[Hg+2]` [Hg(II), mercury(II) acetate], the enzyme activity result in assay [1] (2.5 μM of the ion, small decrease of color intensity) was “slightly inhibited”. The “inhibition of AuNPs dissolution” value in assay [1] (20 μM of the ion) is “approximately 30%”. Further, the GDH activity result in assay [1] (20 μM of the ion, light pink color) is listed as “significantly inhibited”. Also, the “inhibition of GDH” value in assay [1] (100 μM of the ion, completely white readout, complete dissolution of AuNPs) was “complete inhibition”. The IC50 in assay [1] (0.1 U GDH, 0-200 μM Hg(II), 400 μM Au3+-CTAB, 4-min reaction, ImageJ intensity) was 20 µM; in assay [2], 18 µM. In the assay with GDH, the “inhibitory effect on GDH (literature)” value is on record as “strong inhibitors”.

Values taken from patent publication US10000790B2, “Materials and methods for rapid visualization of NAD(P)H” (THE FLORIDA INTERNATIONAL UNIVERSITY BOARD OF TRUSTEES, priority 2015, dated 2018).
